From patent US7618968B2, “Aryl triazines as LPAAT-β inhibitors and uses thereof” (Cell Therapeutics, Inc., priority 2001, dated 2009)

target: T1, LPAAT-β (Homo sapiens, UniProt O15120); experiment: LPAAT-β cell-free assay (colorimetric primary screen, radiometric/fluorescent TLC secondary assay); type: biochemical; settings: Sf9 cell membrane overexpressing LPAAT-β
T1 construct: the full-length human LPAAT-β cDNA was amplified by PCR; poly-histidine tag (from pFastBac HTc vector) (N); made in house; host or cells: Sf9 insect cells (baculovirus); membrane fraction used
T1 sequence (O15120 24-278): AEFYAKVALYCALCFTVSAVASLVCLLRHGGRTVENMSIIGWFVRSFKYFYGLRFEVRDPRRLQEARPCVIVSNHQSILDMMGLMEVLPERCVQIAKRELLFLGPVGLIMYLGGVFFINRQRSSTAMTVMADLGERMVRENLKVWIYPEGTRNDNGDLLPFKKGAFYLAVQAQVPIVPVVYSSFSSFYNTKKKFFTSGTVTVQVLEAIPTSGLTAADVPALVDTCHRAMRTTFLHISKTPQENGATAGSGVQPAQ
Source text: A. Production of Recombinant LPAAT-β for Assays
For the construction of Baculovirus expression vectors, the full-length human LPAAT-β cDNA was amplified by PCR from the DNA template pCE9.LPAAT-β (West et al., DNA Cell Biol. 16:691-701 (1997)) using the primers 5′-[…] […] […] […]-3′ (olpb1F; SEQ ID NO:1) and 5′-[…] […] […]-3′ (olpb1R; SEQ ID NO:2). The ˜870 bp fragment generated was reamplified by PCR using the primers 5′[…] […] […] […] ATC-3′ (olpb2F; SEQ ID NO:3) and 5′-[…] […] […]-3′ (olpb1R; SEQ ID NO:2). The ˜890 bp fragment generated was then cleaved with Sal I and Xba I for insertion into pFastBac™ HTc vector (Life Technologies, Gaithersberg, Md.) between the Sal I and Xba I sites for the generation of the plasmid pFB.LPAAT-β. This plasmid was then transformed into E. coli DH10Bac™ (Life Technologies, Gaithersberg, Md.) for the generation of recombinant Bacmid DNA for transfection in HighFive (Invitrogen, San Diego, Calif.) or SF9 insect cells for the production of recombinant Baculovirus stocks using the protocol described in the Bac-to-Bac® Baculovirus Expression System (Life Technologies, Gaithersberg, Md.), a eukaryotic expression system for generating recombinant baculovirus through site-specific transposition in E. coli. Viral stocks harvested from the transfected cells can then be used to infect fresh insect cells for the subsequence expression of LPAAT-β fusion protein with a poly-histidine tag and a myc-epitope near its N-terminus. The membrane fraction from these Sf9 cells would be the source of LPAAT enzyme.
B. Preparation of Cell Membranes from Sf9 Cells
For the preparation of membranes from Sf9 Cells, all steps are performed on ice or at 4° C. Sf9 cell pellets (˜10^8 cells) were thawed and resuspended in 1-2 ml of buffer A (20 mM Hepes, pH 7.5, 1 mM DTT, 1 mM EDTA, 20% w/v glycerol, 1 mM Benzamidine, 1 μg/ml soybean trypsin inhibitor (SBTI), 1 μg/ml pepstatin A) w/o DTT but with 1 mM Pefabloc. The cells were lysed by sonication using a Branson Sonifier at output=2, duty cycle=2, 10 pulses each at 10s. with the tip of small sonicator probe submerged but not touching the walls. DTT was then added to 1 mM from a 1 M stock. The samples were centrifuged at 1500 rpm for 5 min. The low speed supernatant was saved and centrifuged (TLA 100.3 rotor, polycarbonate tubes, 2 ml/tube or 1.5 ml/tube minimum) at 100000×g for 1 hr. The high speed pellet was resuspend in Buffer A with a probe sonicator (10 pulses @ output #2 and duty cycle 20%) as a source of LPAAT enzyme.
C. Assay of LPAAT-β Activity
LPAAT-β catalyzes the transfer of an acyl group from a donor such as acyl-CoA to LPA. The transfer of the acyl group from acyl-CoA to LPA leads to the release of free CoA, which can be reacted with the thiol reagent, 5,5′-dithiobis(2-nitrobenzoic acid) (DTNB). The reaction between DTNB and the free sulfhydryl group from CoA generates a yellow-colored product, 3-carboxylato-4-nitrothiophenolate (CNP), that absorbs at 413 nm. LPAAT-β derived from Sf9 cell membrane overexpressing LPAAT-β were resuspended in HEPES saline buffer (20 mM HEPES pH 7.5, 150 mM NaCl), 1 mg/ml BSA and 72 μl aliquots were distributed into 96-well microtiter plates. 8 μl of compound of interest at 200 μM dissolved in 100% DMSO was added into each well. 20 μl of 1 mM 18:1-CoA and 1 mM sn-1-18:1 lysoPA was then added to each well to initiate the reaction and allowed to run at room temperature for 25 min. 100 μl of 1 mM DTNB in 100% ethanol was then added to each well to quench the reaction and for color development. The absorbance at 405 nm, measured using a spectrophotometer plate reader, is proportional to the activity of LPAAT-β in the sample. This colorimetric assay was used for the high throughput screening of LPAAT inhibitors.

| Structure (SMILES) | IC50 |
| --- | --- |
| CCc1ccc(Nc2nc(N)nc(-c3cc(Cl)ccc3C)n2)cc1 [Example 38, 6-(5-Chloro-2-methyl-phenyl)-N-(4-ethyl-phenyl)-[1,3,5]triazine-2,4-diamine] | 1000 nM |
| Cc1ccc(Nc2nc(N)nc(-c3cc(Cl)ccc3C)n2)cc1 [Example 39, 6-(5-Chloro-2-methyl-phenyl)-N-p-tolyl-[1,3,5]triazine-2,4-diamine] | 320 nM |
| Nc1nc(Nc2ccc(Br)cc2)nc(-c2cc(Cl)ccc2C(F)(F)F)n1 [Example 40, N-(4-bromophenyl)-6-(5-chloro-2-trifluoromethylphenyl)-[1,3,5]triazine-2,4-diamine] | 2600 nM |
| C#Cc1ccc(Nc2nc(N)nc(-c3cc(Cl)ccc3C)n2)cc1 [Example 42, 6-(5-Chloro-2-methyl-phenyl)-N-(4-ethynyl-phenyl)-[1,3,5]triazine-2,4-diamine] | 280 nM |
| CNC(=O)c1cc(Nc2nc(N)nc(-c3cc(Cl)ccc3C)n2)ccc1Cl [Example 43, 5-[4-amino-6-(5-chloro-2-methylphenyl)-[1,3,5]triazin-2-ylamino]-2-chloro-N-methylbenzamide] | 400 nM |
| CNc1ccc(Cl)cc1-c1nc(N)nc(Nc2ccc(Cl)cc2)n1 [Example 44, 6-(5-Chloro-2-methylaminophenyl)-N-(4-chlorophenyl)-[1,3,5]triazine-2,4-diamine] | 1500 nM |
| Nc1nc(Nc2ccc(Cl)cc2)nc(-c2cc(Br)ccc2Cl)n1 [Example 45, 6-(5-Bromo-2-chloro-phenyl)-N-(4-chloro-phenyl)-[1,3,5]triazine-2,4-diamine] | 40 nM |
| Nc1nc(Nc2ccc(CO)cc2)nc(-c2cc(Cl)ccc2Cl)n1 [Example 46, {4-[4-Amino-6-(2,5-dichloro-phenyl)-[1,3,5]triazin-2-ylamino]-phenyl}-methanol] | 440 nM |
| CN(C)c1ccc(Cl)cc1-c1nc(N)nc(Nc2ccc(Cl)cc2)n1 [Example 47, 6-(5-Chloro-2-dimethylaminophenyl)-N-(4-chlorophenyl)-[1,3,5]triazine-2,4-diamine] | 140 nM |
| Nc1nc(Nc2ccc3cn[nH]c3c2)nc(-c2cc(Cl)ccc2Cl)n1 [Example 48, 6-(2,5-Dichloro-phenyl)-N-(1H-indazol-6-yl)-[1,3,5]triazine-2,4-diamine] | 110 nM |
| Cc1ccc(Nc2nc(N)nc(-c3cc(Cl)ccc3Cl)n2)cc1 [Example 49, 6-(2,5-Dichloro-phenyl)-N-p-tolyl-[1,3,5]triazine-2,4-diamine] | 210 nM |
| CCCOc1ccc(Cl)cc1-c1nc(N)nc(Nc2ccc(Cl)cc2)n1 [Example 50, N-(4-Chloro-phenyl)-6-(5-chloro-2-propoxy-phenyl)-[1,3,5]triazine-2,4-diamine] | 200 nM |
| CCOc1ccc(Cl)cc1-c1nc(N)nc(Nc2ccc3cn[nH]c3c2)n1 [Example 51, 6-(5-Chloro-2-ethoxy-phenyl)-N-(1H-indazol-6-yl)-[1,3,5]triazine-2,4-diamine] | 600 nM |
| CC(C)Oc1ccc(Cl)cc1-c1nc(N)nc(Nc2ccc(Cl)cc2)n1 [Example 52, 6-(5-Chloro-2-isopropoxy-phenyl)-N-(4-chloro-phenyl)-[1,3,5]triazine-2,4-diamine] | 620 nM |
| CCOc1ccc(Cl)cc1-c1nc(N)nc(Nc2ccc(CO)cc2)n1 [Example 53, {4-[4-Amino-6-(5-chloro-2-ethoxy-phenyl) [1,3,5]triazin-2-ylamino]-phenyl}-methanol] | 1800 nM |
| CCOc1ccc(Cl)cc1-c1nc(N)nc(Nc2ccc([N+](=O)[O-])cc2)n1 [Example 54, 6-(5-Chloro-2-ethoxyphenyl)-N-(4-nitrophenyl)-[1,3,5]triazine-2,4-diamine] | 120 nM |
| CCOc1ccc(Cl)cc1-c1nc(N)nc(Nc2ccc3c(c2)OCO3)n1 [Example 55, N-Benzo[1.3]dioxol-5-yl-6-(5-chloro-2-ethoxy-phenyl)[1,3,5]triazine-2,4-diamine] | 800 nM |
| Cc1ccc(Cl)cc1-c1nc(N)nc(Nc2ccc(CCO)cc2)n1 [Example 57, 2-{4-[4-Amino-6-(5-chloro-2-methyl-phenyl)-[1,3,5]triazin-2-ylamino]-phenyl}-ethanol] | 140 nM |
| Cc1ccc(Cl)cc1-c1nc(N)nc(Nc2ccc(CN(C)C)cc2)n1 [Example 58, 6-(5-Chloro-2-methyl-phenyl)-N-(4-dimethylaminomethyl-phenyl)-[1,3,5]triazine-2,4-diamine] | 1800 nM |
| Cc1ccc(Nc2nc(N)nc(-c3cc(Cl)ccc3C)n2)cc1C [Example 59, 6-(5-Chloro-2-methyl-phenyl)-N-(3,4-dimethyl-phenyl)-[1,3,5]triazine-2,4-diamine] | 400 nM |
| Cc1ccc(Cl)cc1-c1nc(N)nc(Nc2ccc(CC(=O)O)cc2)n1 [Example 60, {4-[4-Amino-6-(5-chloro-2-methyl-phenyl)-[1,3,5]triazin-2-ylamino]-phenyl}-acetic acid] | 1300 nM |
| CCOc1ccc(Cl)cc1-c1nc(N)nc(Nc2ccc(C)cc2)n1 [Example 61, 6-(5-Chloro-2-ethoxyphenyl)-N-p-tolyl-[1,3,5]triazine-2,4-diamine] | 2300 nM |
| CCOc1ccc(Cl)cc1-c1nc(N)nc(Nc2ccc(Cl)c(C(=O)NC)c2)n1 [Example 62, 5-[4-Amino-6-(5-chloro-2-ethoxyphenyl)-[1,3,5]triazin-2-ylamino]-2-chloro-N-methylbenzamide] | 1000 nM |
| Cc1ccc(Cl)cc1-c1nc(N)nc(Nc2ccc(COC(=O)CC[C@H](N)C(=O)O)cc2)n1 [Example 63, (S)-2-Amino-pentanedioic acid 5-{4-[4-amino-6-(5-chloro-2-methyl-phenyl)-[1,3,5]triazin-2-ylamino]-benzyl}ester] | 3100 nM |
| COCCOc1ccc(Cl)cc1-c1nc(N)nc(Nc2ccc(Cl)cc2)n1 [Example 65, 6-[5-Chloro-2-(2-methoxy-ethoxy)-phenyl]-N-(4-chloro-phenyl) [1,3,5]triazine-2,4-diamine] | 600 nM |
| CCc1cccc(Nc2nc(N)nc(-c3cc(Cl)ccc3C)n2)c1 [Example 66, 6-(5-Chloro-2-methyl-phenyl)-N-(3-ethyl-phenyl)-[1,3,5]triazine-2,4-diamine] | 750 nM |
| C=Cc1ccc(Nc2nc(N)nc(-c3cc(Cl)ccc3C)n2)cc1 [Example 67, 6-(5-Chloro-2-methyl-phenyl)-N-(4-vinyl-phenyl)-[1,3,5]triazine-2,4-diamine] | 710 nM |
| Cc1ccc(Cl)cc1-c1nc(N)nc(Nc2ccc(CF)cc2)n1 [Example 68, 6-(5-Chloro-2-methyl-phenyl)-N-(4-fluoromethyl-phenyl)-[1,3,5]-triazine-2,4-diamine] | 130 nM |
| CCOc1ccc(Cl)cc1-c1nc(N)nc(Nc2ccc(C(O)CO)cc2)n1 (stereo not drawn) [Example 69] | 2600 nM |
| Cc1ccc(Cl)cc1-c1nc(N)nc(Nc2ccc(COC(=O)CCC(=O)O)cc2)n1 [Example 70] | 830 nM |
